Source: patent EP4800018A1, “PAN-KRAS INHIBITOR AND USE THEREOF IN MEDICINES” (Betta Pharmaceuticals Co., Ltd., priority 2023, dated 2025)
Where two headings read alike, the source gives them in different places.

Assays:
[1] = PK Study of Compounds in Rats; type: in vivo, Male SD rats; conditions: mean; for F: PO 10 mg/kg vs IV 1 mg/kg (n=3); for Cmax: read-out: C0/Cmax
Protocol: The test compound was mixed with the vehicle (10% DMSO/5% Solutol/85% physiological saline), vortexed and sonicated to prepare a clear 0.5 mg/mL intravenous injection solution. The test compound was mixed with the vehicle (20% PEG400/10% Solutol/70% pH 4.5 acetate buffer), vortexed and sonicated to prepare a clear 1 mg/mL oral solution. Male SD rats aged 6 to 7 weeks were selected and administered the test compound via intravenous (IV) and oral (PO) routes, respectively. Whole blood samples were collected at 5 min, 15 min, 30 min, 1 h, 2 h, 4 h, 7 h, and 24 h for the intravenous route, and at 15 min, 30 min, 1 h, 2 h, 4 h, 7 h, and 24 h for the oral route. Drug concentrations were analyzed by LC-MS/MS method, and pharmacokinetic parameters were calculated using Phoenix WinNonlin software (Pharsight, USA).

[2] = tested on: KRAS-G12V mutant tumor cells SW620; assay: Cell Proliferation Inhibition Assay (SW620), Cell-titer GLO, 96 h; type: cell-based; conditions: SW620 cells, 96 h incubation, Cell-titer GLO, read-out: SW620(G12V)
In short: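 Readout: Cell-titer GLO luminescence after 96 h at 37°C, converted to percent inhibition against 0.5% DMSO and blank controls, with IC50 from curve fit. Low-attachment SW620 cultures (1×10^3 cells/well) were dosed at 10000–0.03 nM final.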

[3] = tested on: KRAS-G12D mutant tumor cells AGS; assay: Cell Proliferation Inhibition Assay (AGS), Cell-titer GLO, 96 h; type: cell-based; conditions: AGS cells, 96 h incubation, Cell-titer GLO, read-out: AGS(G12D)
In short: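 Inhibition % was derived from CellTiter-Glo luminescence (max minus measured, over max minus blank) and fitted to give IC50. Cells were KRAS-G12D AGS in low-attachment wells, treated for 96 h at 37°C.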

KRAS G12V-cRAF = target: T1, KRAS G12V-cRAF (Homo sapiens, UniProt P01116, G12V); assay: Cellular KRAS G12V-cRAF Binding Inhibition Assay (NanoBRET, AD293 stable cells); type: cell-based; conditions: 3 h incubation, read-out: NanoBRET KRAS G12V
T1 construct: expressed in transfected cells
T1 sequence (P01116 1-188 isoform P01116-2 G12V): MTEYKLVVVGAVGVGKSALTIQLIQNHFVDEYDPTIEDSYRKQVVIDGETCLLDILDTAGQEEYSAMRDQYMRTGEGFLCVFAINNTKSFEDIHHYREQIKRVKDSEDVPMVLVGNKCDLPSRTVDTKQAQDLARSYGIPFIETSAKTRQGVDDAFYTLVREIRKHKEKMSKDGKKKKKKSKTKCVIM
In short: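 Binding measured as BRET between NanoLuc and HaloTag-bound NanoBRET 618 ligand (added overnight) in stably expressing AD293 cells. Signals were converted to percent inhibition against max and blank wells and fitted for IC50.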

KRAS G12D-cRAF = target: T2, KRAS G12D-cRAF (Homo sapiens, UniProt P01116, G12D); assay: Cellular KRAS G12D-cRAF Binding Inhibition Assay (NanoBRET, AD293 stable cells); type: cell-based; conditions: 3 h incubation, read-out: NanoBRET KRAS G12D
T2 construct: expressed in transfected cells
T2 sequence (P01116 1-188 isoform P01116-2 G12D): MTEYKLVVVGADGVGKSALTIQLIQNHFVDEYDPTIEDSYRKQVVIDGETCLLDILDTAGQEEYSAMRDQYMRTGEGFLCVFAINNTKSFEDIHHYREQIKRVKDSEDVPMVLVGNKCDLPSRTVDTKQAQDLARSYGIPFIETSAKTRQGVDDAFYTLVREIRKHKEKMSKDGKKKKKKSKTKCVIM
In short: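 IC50 values derive from fitted % inhibition, normalised to maximum signal and medium-only blank. The read-out is NanoBRET between KRAS G12D-NanoLuc (donor) and cRAF RBD-HaloTag labelled with the 618 ligand (acceptor), in live stably transfected AD293 cells at 1×10^4/well.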

[4] = male, SD, rat, whole blood, IV 1 mg/kg (n=3)
[5] = male, SD, rat, whole blood, PO 10 mg/kg (n=3)

Row | Compound | IC50 ([2]; Homo sapiens, SW-620, 96 h) | IC50 ([3]; Homo sapiens, AGS, 96 h) | IC50 (KRAS G12V-cRAF) | IC50 (KRAS G12D-cRAF) | further results
1 | CC1OCCCn2c(c3c4cc(ccc42)-c2csc(n2)CC(NC(=O)C2C4COCC42)C(=O)N2NC(C(=O)OCC(C)(C)C3)C3CC2C3)-c2cc(N3CCN(C)CC3)cnc21 [Example 192, (1R,5S,6r)-N-((1^5S,6^4S,4S,Z)-1^5,10,10-trimethyl-1^2-(4-methylpiperazin-1-yl)-5,7-dioxo-1^8,1^9-dihydro-1^5H,1^7H-8-oxa-6^2,6^3-diaza-1(13,15)-pyrido[3',2':7,8][1,5]oxazonino[5,6-a]indola-2(4,2)-thiazola-6(2,4)-bicyclo[3.1.1]heptanacycloundecaphane-4-yl)-3-oxabicyclo[3.1.0]hexane-6-carboxamide] | 0.9 nM | 1.5 nM | 16.3 nM | 4.3 nM | F [1]: 11.9; clearance [1, 4]: 3.59 mL/min/kg; half-life [1, 4]: 4.93 h; AUC(0-t) ([1]; male, SD, rat, whole blood, IV 1 mg/kg (n=3), read-out: AUC0-t): 4500 ng·h/mL; Cmax [1, 4]: 4220 ng/mL; Vd ([1]; male, SD, rat, whole blood, IV 1 mg/kg (n=3), read-out: Vss): 1.11 L/kg; half-life [1, 5]: 5.13 h; AUC(0-t) ([1]; male, SD, rat, whole blood, PO 10 mg/kg (n=3), read-out: AUC0-t): 5350 ng·h/mL; Cmax [1, 5]: 472 ng/mL; Tmax ([1]; male, SD, rat, whole blood, PO 10 mg/kg (n=3), read-out: Tmax): 3.33 h
2 | (1S,2S)-2-(difluoromethyl)-N-((1^5S,6^4S,4S,Z)-1^5,10,10-trimethyl-1^2-(4-methylpiperazin-1-yl)-5, 7-dioxo-1^8,1^9-dihydro-1^5H,1^7H-8-oxa-6^2,6^3-diaza-1(13,15)-pyrido[3',2':7,8][1,5]oxazonino[5,6-a ]indola-2(4,2)-thiazola-6(2,4)-bicyclo[3.1.1]heptanacycloundecaphane-4-yl)cyclopropane-1-carb oxamide [Example 184] | – | – | – | – | AUC(0-t) ([1]; IV 1 mg/kg (n=3)): 5558 ng·h/mL; CL ([1]; IV 1 mg/kg (n=3)): 2.56 mL/min/kg; T1/2 ([1]; IV 1 mg/kg (n=3)): 9.07 h; Vss ([1]; IV 1 mg/kg (n=3)): 1.71 L/kg; AUC(0-t) ([1]; PO 10 mg/kg (n=3)): 10910 ng·h/mL; Tmax ([1]; PO 10 mg/kg (n=3)): 3.33 h; F [1]: 19.6; IC50 [2]: 0.65 nM; IC50 [3]: 0.9 nM
3 | CC1OCCCn2c(c3c4cc(ccc42)-c2csc(n2)CC(NC(=O)C2C(C)C2C)C(=O)N2CCCC(N2)C(=O)OCC(C)(C)C3)-c2cc(OCCN3CCOCC3)cnc21 [Example 158, (1r,2R,3S)-2,3-dimethyl-N-((1^5S,6^3S,4S,Z)-1^5,10,10-trimethyl-1^2-(2-morpholinoethoxy)-5,7-dioxo-1^8,1^9,6^1,6^26^3,6^4,6^5,6^6-octahydro-1^5H,1^7H-8-oxa-1(13,15)-pyrido[3',2':7,8][1,5]oxazonino[5,6-a]indola-2(4,2)-thiazola-6(1,3)-pyridazinacycloundecaphane-4-yl)cyclopropane-1-carboxamide] | 0.11 nM | 0.58 nM | 5.06 nM | 1.01 nM | –
4 | CC1OCCCn2c(c3c4cc(ccc42)-c2csc(n2)CC(NC(=O)C2CC2C(F)F)C(=O)N2CCCC(N2)C(=O)OCC(C)(C)C3)-c2cc(N3CCN(C4CCOCC4)CC3)cnc21 [Example 109, (1S,2S)-2-(difluoromethyl)-N-((1^5S,6^3S,4S,Z)-1^5,10,10-trimethyl-5,7-dioxo-1^2-(4-(tetrahydro-2H -pyran-4-yl)piperazin-1-yl)-18, 1^9,6^1,6^2,6^3 ,6^4,6^5,6^6-octahydro-1^5H,1^7H-8-oxa-1(13,15)-pyrido[3',2' :7,8][1,5]oxazonino[5,6-a]indola-2(4,2)-thiazola-6(1,3)-pyridazinacycloundecaphane-4-yl)cyclo propane-1-carboxamide] | 0.2 nM | 1.02 nM | 14.9 nM | 6.2 nM | –
5 | CC1OCCCn2c(c3c4cc(ccc42)-c2csc(n2)CC(NC(=O)C2CC2C(F)F)C(=O)N2CCCC(N2)C(=O)OCC(C)(C)C3)-c2cc(N3CCC(N4CCN(C)CC4)CC3)cnc21 [Example 102, (1S,2S)-2-(difluoromethyl)-N-((1^5S,6^3S,4S,Z)-1^5,10,10-trimethyl-1^2-(4-(4-methylpiperazin-1-yl)piperidin-1-yl)-5,7-dioxo-1^8,1^9,6^1,6^2,6^3,6^4,6^5,6^6-octahydro-1^5H,1^7H-8-oxa-1(13,15)-pyrido[3',2':7 ,8][1,5]oxazonino[5,6-a]indola-2(4,2)-thiazola-6(1,3)-pyridazinacycloundecaphane-4-yl)cyclopr opane-1-carboxamide] | 0.17 nM | 0.38 nM | 14.7 nM | 4.13 nM | –
6 | CC1OCCCn2c(c3c4cc(ccc42)-c2csc(n2)CC(NC(=O)C24CC(C)(C2)C4)C(=O)N2CCCC(N2)C(=O)OCC(C)(C)C3)-c2cc(N3CCN(C)CC3)cnc21 [Example 80, 3-methyl-N-((1^53 ^3S,4S,Z)-1^5,10,10-trimethyl-1^2-(4-methylpiperazin-1-yl)-5,7-dioxo-1^8,1^9,6^1,6^2 ,6^3,6^4,6^5,^6-octahydro-1^5H,1^7H-8-oxa-1(13,15)-pyrido[3',2':7,8][1,5]oxazonino[5,6-a]indola-2(4, 2)-thiazola-6(1,3)-pyridazinacycloundecaphane-4-yl)bicyclo[1.1.1]pentane-1-carboxamide] | 0.3 nM | 1.76 nM | 21.3 nM | 5.7 nM | –
7 | CC1OCCCn2c(c3c4cc(ccc42)-c2csc(n2)CC(NC(=O)C24CC(C)(C2)C4)C(=O)N2CCCC(N2)C(=O)OCC(C)(C)C3)-c2cc(N3CC(C)N(C)C(C)C3)cnc21 [Example 172, 3-methyl-N-((1^5S,6^3S,4S,Z)-1^5,10,10-trimethyl-5,7-dioxo-1^2-((3S,5S)-3,4,5-trimethylpiperazin-1-y)-1^8,1^9,6^1,6^2,6^3,6^4,6^5,6^6-octahydro-1^5H,1^7H-8-oxa-1(13,15)-pyrido[3',2':7,8][1,5]oxazonino[5,6-a]indola-2(4,2)-thiazola-6(1,3)-pyridazinacycloundecaphane-4-yl)bicyclo[1.1.1]pentane-1-carb oxamide] | 0.32 nM | 1.1 nM | 6.7 nM | 2.02 nM | –
